Measurements: US10242153B2, “Method for determining the risk profile of neoplastic tissue” (NOVAZOI THERANOSTICS, priority 2014, dated 2019)

How the values were obtained:
MDA-MB-231 (231) cells = experiment: Peak subG1 fraction by flow cytometry (propidium iodide) after declustering drugs, 231 cells; assay type: cell-based, human
Description: (§1) To evaluate the impact of putative declustering drugs on cell cycle progression and hypodiploidy (<2N DNA content, which may indicate apoptotic cells), MDA-MB-231 (231), PC3, and HeLa cells were treated with different concentrations of declustering drugs, stained with propidium iodide, labeled with anti-MPM2 antibody, and then assessed by flow cytometry at multiple time points over 48 hr. […] The duration, highest degree, and rapidity of onset of MA varied between drugs, drug concentrations, and cell lines (data not shown). In general, the maximum MA achieved was less pronounced in Nos- and PJ-treated cells. Drug-induced onset of MA was corroborated by substantial increases in cyclin B1 levels in all cell lines. For most cases, prolonged MA (˜24 hr in duration) was followed by a substantial increase in the subG1 population fraction. […] Instances where the subGl fraction was elevated without cleaved caspase-3 may either represent caspase-independent cell death or the presence of hypodiploid cells whose fate is unclear. In general, no consistent associations between the extent, duration, or timing of MA within drugs or across cell lines was found.

HeLa cells = experiment: Peak subG1 fraction by flow cytometry after declustering drugs, HeLa cells; assay type: cell-based
Description: as §1

PC3 cells = experiment: Peak subG1 fraction by flow cytometry after declustering drugs, PC3 cells; assay type: cell-based
Description: as §1

[1] = tested on: adult human dermal fibroblasts (HDFs); experiment: Peak subG1 fraction after declustering drugs, non-malignant HDFs; assay type: cell-based; conditions: for Peak subG1 percents over 48 h: HDF; for death in cancer cell lines vs. HDFs: both concentrations
Description: as §1
(§2) To determine whether the CA-inducing activity of declustering drugs is restricted to cancer cells, two non-malignant cell lines, mammary fibrocystic (MCF10A) cells and adult human dermal fibroblasts (HDFs) were treated with these drugs. […] In comparison, 10 and 25 µM RBN increased peak CA over controls in interphase cells (p<0.001 and p=0.001, respectively), with the lower concentration dramatically augmenting peak CA to 56% of cells versus 15% for the higher dose (FIG. 13, panel B).
In HDFs, all the drugs tested increased peak subG1 over controls in a significant fashion (p<0.01 for all) (Table 2). […] Thus, it appears that there may be clinically relevant therapeutic windows for these drugs depending on the type of cancer and the drug dosage.

[2] = tested on: mammary fibrocystic (MCF10A) cells; experiment: Peak subG1 fraction after declustering drugs, non-malignant MCF10A cells; assay type: cell-based; conditions: for peak subG1 percent compared to controls: MCF10A cells; for Peak subG1 percents over 48 h: MCF10A
Description: as §1, §2
Importantly, a therapeutic window exists for several of these agents at the concentrations and in the cell lines tested compared to cancer cells.

MCF10A cells = experiment: Centrosome amplification (CA) by microscopy, MCF10A cells; assay type: cell-based
Description: (§3) Consequently, CA was assessed in cultures treated with different concentrations of declustering drugs for 6, 12, 18, or 24 h and untreated controls via microscopy. Centrosomes were identified by γ-tubulin and centrin-2 colocalization at discrete foci.
as §2

[3] = tested on: adult human dermal fibroblasts (HDFs); experiment: Centrosome amplification (CA) by microscopy, HDFs; assay type: cell-based
Description: as §3, §2

[4] = tested on: ZR-75-30 cells with amplified centrosomes (ZR-A); experiment: Sub-G1 population in ZR-75-30 cells with amplified centrosomes (ZR-A) versus parent cells; assay type: cell-based; conditions: 25 μM, 48 h
Description: Panel A depicts representative DNA histograms comparing cell-cycle kinetics of ZR-75-30 cells and ZR-A cells treated with bromonoscapine (BN, 25 μM), griseofulvin (GF, 25 μM) or PJ34 (25 μM), respectively for 48 h. […] Panel B depicts a quantitative comparison of sub-G1 population in ZR-75-30 and ZR-A cells upon treatment with the three drugs with the same concentration (25 μM) for the same duration (48 h).
Accordingly, these cells can be pharmacologically manipulated with aphidicolin to generate extra centrosomes. […] Following aphidicolin wash-out, cells were stained using anti-centrin-2 antibodies to verify extra centrosomes by immunofluorescence confocal microscopy. About ˜60% ZR-75-30 cells generated extra centrosomes (6-8 per cell) and were evaluated for their sensitivity to the three drugs, griseofulvin, bromonoscapine, and PJ34, and compared with parent ZR-75-30 cells with normal centrosomes.

N1E-115 cells [5] = experiment: Drug sensitivity (IC50) of N1E-115 cells; assay type: cell-based, murine; conditions: Mus musculus; N1E-115 cells (data not shown)
N1E-115 cells [6] = experiment: Interphase declustering index (DI) in N1E-115 cells; assay type: cell-based, murine; conditions: 6-h treatment, 25 interphase cells, drugs at their respective IC50 concentrations
Description: To evaluate their effect on interphase clustering, N1E-115 cells were treated with these drugs at their respective IC50 concentrations for 0, 3, 6 and 9 h and co-immunostained for γ-tubulin and α-tubulin to evaluate centrosomal spread and microtubule nucleation status, respectively.
Cell cycle phases were further evaluated via lamin A/C immunostaining to distinguish interphase declustering events from prophase centrosomal spread. To quantitate the spread of the interphase centrosomal cluster, a 3D reconstruction of z-stack images of 25 randomly-selected interphase cells from the 6-h treatment group of each drug were generated. By defining an ROI (region of interest) around the interphase centrosomal cluster, the volume of the cluster spread was calculated using Volocity software. Likewise, defining an ROI using the cell periphery provided the cell volume.

N1E-115 cells [7] = experiment: Neuritogenesis (neurite extension) in serum-starved N1E-115 cells; assay type: cell-based, murine; conditions: Mus musculus, N1E-115, 48 h, RedBr-Nos 5 μM, Griseofulvin 10 μM
Description: N1E-115 cells grown in serum-starved (SS) medium were evaluated to determine the extent of neurite formation after 48 h of treatment with RedBr-Nos (5 μM), Griseofulvin (10 μM), PJ-34 (10 μM), Paclitaxel (0.05 μM) treatment or untreated control cells (i.e., serum-starved medium (SS) alone). Panels Ai and Aii depict quantitative bar graphs representing the average length of neurites and percentage of population of cells showing neurite length >10 μm, respectively. A hundred cells were counted in each case. […] Panel B depicts an immunoblot showing CLASP1 expression levels in control (C) and CLASP1 siRNA-transfected N1E-115 cells.
Neuritogenesis is a process in nerve cells involving the extension of polarized, elongated neurites. N1E-115 cells usually extend only one major neurite per cell, which can vary in length from 5 to 500 μm. The growth cones of the neurites serve as primary focal points of motility. The effect of declustering agents on cell motility was evaluated by assessing the length and frequency of neurites formed in a serum-free medium on a laminin-coated surface.

N1E-115 cells [8] = experiment: Golgi (GM130) and γ-tubulin co-immunostaining of drug-treated N1E-115 cells; assay type: cell-based, murine; conditions: data not shown
Text: The Golgi, which is primarily responsible for posttranslational modification and protein sorting, also functions as a microtubule-organizing center (MTOC). It has been hypothesized that supernumerary centrosomes may better organize the Golgi to enhance directional cell migration. To investigate what happens to the Golgi upon declustering drug-induced dispersal of the interphase centrosomal cluster, drug-treated N1E-115 cells were co-immunostained with GM130 (a cis-Golgi matrix protein crucial for maintaining its structure) and γ-tubulin.

N1E-115 cells [9] = experiment: Vinculin localization in serum-starved N1E-115 cells; assay type: cell-based, murine; conditions: serum-starved (SS) cells
Text: Vinculin stabilizes cell-substrate contacts in neuronal cells undergoing neuritogenesis, while activation by actin-binding proteins mobilizes vinculin to focal adhesions. To determine the localization of vinculin in the neurite extensions and the effect of declustering agents on its localization, N1E-115 cells were immunostained cells for vinculin and stained F-actin using rhodamine-phalloidin.

N1E-115 cells [10] = experiment: Ki67 and cleaved caspase-3 immunostaining of serum-starved N1E-115 cells; assay type: cell-based, murine; conditions: RedBr-Nos 5 μM, Griseofulvin 10 μM, PJ-34 10 μM

## COc1ccc2c(c1OC)C(=O)O[C@@H]2[C@H]1c2c(c(Br)c3c(c2OC)OCO3)CCN1C [BN, bromonoscapine]
MDA-MB-231 (231) cells; 10 μM
  Peak subG1 percents over 48 h: 32.5%
MDA-MB-231 (231) cells; 25 μM
  Peak subG1 percents over 48 h: 65.2%
  maximum (peak) subG1 fraction relative to control: 9.3 × control
HeLa cells; 10 μM
  Peak subG1 percents over 48 h: 42.0%
HeLa cells; 25 μM
  Peak subG1 percents over 48 h: 54.9%
  maximum (peak) subG1 fraction relative to control: 4.4 × control
PC3 cells; 10 μM
  Peak subG1 percents over 48 h: 46.0%
PC3 cells; 25 μM
  Peak subG1 percents over 48 h: 42.8%
  maximum (peak) subG1 fraction relative to control: 9.2 × control
[1]; 10 μM
  Peak subG1 percents over 48 h: 16.5%
[1]; 25 μM
  Peak subG1 percents over 48 h: 20.4%
[1]
  death in cancer cell lines vs. HDFs: the same was true for 231 and PC3 cells
[2]
  peak subG1 percent compared to controls: did not cause a significant increase
[2]; 10 μM
  Peak subG1 percents over 48 h: 3.5%
[2]; 25 μM
  Peak subG1 percents over 48 h: 3.0%
MCF10A cells; interphase and mitotic MCF10A cells, both concentrations (10 and 25 μM), over 24 h
  CA / peak extent of CA versus control levels: neither concentrations of Nos or BN significantly increased CA over control levels
[3]; HDFs, any of the concentrations or time points assessed
  extent of CA over controls: did not significantly increase the extent of CA over controls
[4]
  sub-G1 population versus parent ZR-75-30 cells: much higher sub-G1 population compared to parent ZR-75-30 cells

## COC1=CC(=O)C[C@@H](C)[C@]12Oc1c(Cl)c(OC)cc(OC)c1C2=O [GF, griseofulvin]
MDA-MB-231 (231) cells; 25 μM
  Peak subG1 percents over 48 h: 62.0%
  maximum (peak) subG1 fraction relative to control: 6.4 × control
MDA-MB-231 (231) cells; 50 μM
  Peak subG1 percents over 48 h: 60.0%
HeLa cells; 25 μM
  Peak subG1 percents over 48 h: 59.5%
HeLa cells; 50 μM
  Peak subG1 percents over 48 h: 79.0%
  maximum (peak) subG1 fraction relative to control: 4.3 × control
PC3 cells; 25 μM
  Peak subG1 percents over 48 h: 33.7%
PC3 cells; 50 μM
  Peak subG1 percents over 48 h: 39.5%
  maximum (peak) subG1 fraction relative to control: 16.3 × control
[1]; 25 μM
  Peak subG1 percents over 48 h: 32.9%
[1]; 50 μM
  Peak subG1 percents over 48 h: 38.3%
[1]
  death in cancer cell lines vs. HDFs: more death in 231 and HeLa cells
[2]; 25 μM
  susceptibility / toxicity in MCF10A cells versus cancer cell lines: All cancer cell lines were found to be more susceptible
  Peak subG1 percents over 48 h: 22.7%
[2]; 50 μM
  susceptibility of MCF10A cells versus cancer cell lines: MCF10A and PC3 cells were equally susceptible
  Peak subG1 percents over 48 h: 35.1%
[2]
  peak subG1 percent compared to controls: did increase peak SubG1
MCF10A cells; interphase MCF10A cells, 25 and 50 μM
  peak interphase CA: 13-16%
MCF10A cells; mitotic MCF10A cells, 25 and 50 μM
  CA in mitotic cells versus controls: no increase was observed
[3]; interphase HDFs only, 25 and 50 μM
  peak CA: 14-15%
N1E-115 cells [5]
  IC50: 25 µM
N1E-115 cells [6]
  interphase declustering index (DI): ratio of average cluster volume to average cell volume: 0.28
N1E-115 cells [7]
  inhibition at 10 µM: 70 to 80%
N1E-115 cells [8]
  fragmentation of the interphase Golgi complex: most robust effect
N1E-115 cells [9]
  vinculin localization and focal adhesion points: complete internalization of vinculin and complete loss of focal adhesion points
N1E-115 cells [10]
  Ki67-positive cells: high proportion of Ki67-positive cells
[4]
  sub-G1 population versus parent ZR-75-30 cells: much higher sub-G1 population compared to parent ZR-75-30 cells
